Results from ChEMBL document CHEMBL1177725, “6-(3,4-dichlorophenyl)-1-[(methyloxy)methyl]-3-azabicyclo[4.1.0]heptane: a new potent and selective triple reuptake inhibitor” (J Med Chem, 2010).

What was measured:
Assay type in all cases: cell-based
[1] = biological target: Sodium-dependent noradrenaline transporter (Homo sapiens, UniProt P23975); assay: Displacement of [N-methyl-3H]nisoxetine from human recombinant NET expressed in pig LLCPK cells after 2 hrs by liquid scintillation counting
[2] = biological target: Sodium-dependent serotonin transporter (Homo sapiens, UniProt P31645); assay: Displacement of [N-methyl-3H]citalopram from human recombinant SERT expressed in pig LLCPK cells after 2 hrs by liquid scintillation counting
Sequence of Sodium-dependent serotonin transporter (P31645 whole entry): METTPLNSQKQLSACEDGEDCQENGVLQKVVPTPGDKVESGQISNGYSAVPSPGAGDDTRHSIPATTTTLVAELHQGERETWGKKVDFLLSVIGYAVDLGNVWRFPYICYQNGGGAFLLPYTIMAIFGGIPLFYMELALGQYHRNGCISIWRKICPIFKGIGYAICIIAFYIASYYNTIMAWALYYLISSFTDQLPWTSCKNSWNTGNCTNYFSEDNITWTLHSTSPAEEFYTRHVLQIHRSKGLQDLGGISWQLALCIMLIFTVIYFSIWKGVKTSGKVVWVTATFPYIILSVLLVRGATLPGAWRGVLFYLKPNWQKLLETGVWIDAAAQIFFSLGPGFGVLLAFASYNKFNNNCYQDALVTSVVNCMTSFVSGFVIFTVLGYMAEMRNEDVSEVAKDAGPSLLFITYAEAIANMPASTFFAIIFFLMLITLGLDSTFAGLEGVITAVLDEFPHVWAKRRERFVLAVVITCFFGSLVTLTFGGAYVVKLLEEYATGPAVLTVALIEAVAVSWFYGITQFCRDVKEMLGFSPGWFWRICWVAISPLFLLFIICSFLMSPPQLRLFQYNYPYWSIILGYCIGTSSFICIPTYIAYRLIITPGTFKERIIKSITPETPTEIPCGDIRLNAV

[3] = biological target: Sodium-dependent dopamine transporter (Homo sapiens, UniProt Q01959); assay: Displacement of [N-methyl-3H]WIN-35428 from human recombinant DAT expressed in pig LLCPK cells after 2 hrs by liquid scintillation counting
Sequence of Sodium-dependent dopamine transporter (Q01959 whole entry): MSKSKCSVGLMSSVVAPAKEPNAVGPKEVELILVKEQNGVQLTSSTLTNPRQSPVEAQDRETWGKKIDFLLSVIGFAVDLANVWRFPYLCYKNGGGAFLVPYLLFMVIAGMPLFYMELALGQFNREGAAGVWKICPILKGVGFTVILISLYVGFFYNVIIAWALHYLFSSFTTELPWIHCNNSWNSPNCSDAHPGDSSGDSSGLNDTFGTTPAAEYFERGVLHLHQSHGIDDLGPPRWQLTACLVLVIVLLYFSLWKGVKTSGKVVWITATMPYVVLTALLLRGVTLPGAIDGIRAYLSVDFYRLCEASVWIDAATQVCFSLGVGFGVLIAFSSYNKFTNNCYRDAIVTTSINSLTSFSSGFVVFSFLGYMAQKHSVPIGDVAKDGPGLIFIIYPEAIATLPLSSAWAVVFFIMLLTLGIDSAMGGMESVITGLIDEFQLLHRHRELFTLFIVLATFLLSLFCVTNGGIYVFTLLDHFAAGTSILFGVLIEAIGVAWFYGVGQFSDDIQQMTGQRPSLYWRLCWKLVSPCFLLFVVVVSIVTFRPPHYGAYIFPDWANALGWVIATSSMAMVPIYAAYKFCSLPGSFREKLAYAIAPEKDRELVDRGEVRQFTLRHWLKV

Sequence of Sodium-dependent noradrenaline transporter (P23975 whole entry): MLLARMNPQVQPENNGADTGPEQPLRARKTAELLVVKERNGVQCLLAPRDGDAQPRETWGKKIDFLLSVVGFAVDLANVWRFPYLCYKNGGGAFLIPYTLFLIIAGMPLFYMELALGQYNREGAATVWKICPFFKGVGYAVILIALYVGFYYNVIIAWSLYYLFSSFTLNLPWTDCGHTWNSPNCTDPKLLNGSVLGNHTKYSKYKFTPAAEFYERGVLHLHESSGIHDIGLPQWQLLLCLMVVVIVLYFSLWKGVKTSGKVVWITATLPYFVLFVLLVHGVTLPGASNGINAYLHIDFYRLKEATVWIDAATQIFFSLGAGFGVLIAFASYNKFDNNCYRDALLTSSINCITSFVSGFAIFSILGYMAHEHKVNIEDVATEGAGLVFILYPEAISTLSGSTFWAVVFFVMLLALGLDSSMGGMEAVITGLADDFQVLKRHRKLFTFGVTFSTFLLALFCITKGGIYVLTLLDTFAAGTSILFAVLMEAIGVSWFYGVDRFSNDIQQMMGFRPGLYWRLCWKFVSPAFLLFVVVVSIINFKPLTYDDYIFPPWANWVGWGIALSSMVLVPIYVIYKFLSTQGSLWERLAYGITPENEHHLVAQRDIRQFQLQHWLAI

Compound | Ki [1] [nM] | Ki [2] [nM] | Ki [3] [nM]
COC[C@@]12CN(C)CC[C@]1(c1ccc(Cl)c(Cl)c1)C2 | 794 | 12.6 | 31.6
COC[C@@]12CN(C(C)C)CC[C@]1(c1ccc(Cl)c(Cl)c1)C2 | 5010 | 631 | 1260
Clc1ccc([C@@H]2CCNC[C@@]23CCCOC3)cc1Cl | 3.98 | 0.316 | 12.6
C=CCC(OC)[C@]12CNCC[C@]1(c1ccc(Cl)c(Cl)c1)C2 (mixture of isomers; form 2) [6-(3,4-DICHLOROPHENYL)-1-[1-(METHYLOXY)-3-BUTEN-1-YL]-3-AZABICYCLO[4.1.0]HEPTANE (DIASTEREOMERIC MIX)] | 3.98 | 1.26 | 1.58
COC[C@@]12CNCC[C@]1(c1ccc(OC(F)(F)F)cc1)C2 (racemic) | 3160 | 3.16 | 7940
COC[C@H]1[C@@H]2CNCC[C@@]21c1ccc(Cl)c(Cl)c1 (racemic) | 2000 | 50.1 | 1260
COC[C@@H]1[C@@H]2CCNC[C@]12c1ccc(Cl)c(Cl)c1 (racemic) | 63.1 | 31.6 | 126
COC[C@@]12CNC[C@H](OC)[C@]1(c1ccc(Cl)c(Cl)c1)C2 (racemic) | 1260 | 100 | 501
COC[C@@]12CNC[C@@H](OC)[C@]1(c1ccc(Cl)c(Cl)c1)C2 (racemic) | 1580 | 251 | 398
COC[C@@H]1[C@@H]2CNCC[C@]12c1ccc(Cl)c(Cl)c1 (racemic) | 316 | 10 | 398
COC[C@@]12CNCC[C@]1(c1ccc(Cl)cc1)C2 (racemic) | 200 | 15.8 | 251
COC[C@@]12CNCC[C@]1(c1ccc(F)c(Cl)c1)C2 (racemic) | 316 | 1.58 | 158
COC[C@@]12CNCC[C@]1(c1ccc(Cl)c(C(F)(F)F)c1)C2 (racemic) | 200 | 15.8 | 3160
COC[C@@]12CNCC[C@]1(c1ccc(C(F)(F)F)c(Cl)c1)C2 (racemic) | 126 | 15.8 | 1580
COC[C@@]12CN[C@@H](C)C[C@]1(c1ccc(Cl)c(Cl)c1)C2 (racemic) | 50.1 | 7.94 | 39.8
COC[C@@]12CNC[C@H](F)[C@]1(c1ccc(Cl)c(Cl)c1)C2 (racemic) | 100 | 5.01 | 100
COC[C@@]12CNC[C@@H](F)[C@]1(c1ccc(Cl)c(Cl)c1)C2 (racemic) | 50.1 | 3.98 | 100
FC(F)(F)COC[C@@]12CNCC[C@]1(c1ccc(Cl)c(Cl)c1)C2 (racemic) | 79.4 | 6.31 | 39.8
CCOC(=O)[C@@]12CNCC[C@]1(c1ccc(Cl)c(Cl)c1)C2 (racemic) | 7.94 | 15.8 | 5.01
NC(=O)[C@@]12CNCC[C@]1(c1ccc(Cl)c(Cl)c1)C2 (racemic) | 794 | 100 | 251
CC#CNC(=O)[C@@]12CNCC[C@]1(c1ccc(Cl)c(Cl)c1)C2 (racemic) | 501 | 100 | 158
Clc1ccc([C@]23CCNC[C@@]2(COCC2CC2)C3)cc1Cl (racemic) [1-((CYCLOPROPYLMETHOXY)METHYL)-6-(3,4-DICHLOROPHENYL)-3-AZABICYCLO[4.1.0]HEPTANE (ENANTIOMERIC MIX)] | 50.1 | 1.26 | 12.6

Compound | Ki [1] [nM] | Ki [2] [nM] | Ki [3] [nM]
COC[C@@]12CNCC[C@]1(c1ccc3ccccc3c1)C2 (racemic) [1-(METHOXYMETHYL)-6-(NAPHTHALEN-2-YL)-3-AZABICYCLO[4.1.0]HEPTANE (ENANTIOMERIC MIX)] | 12.6 | 0.316 | 31.6
Clc1ccc([C@]23CNCC[C@H]2C3)cc1Cl (racemic) [1-PHENYL-3-AZABICYCLO[4.1.0]HEPTANE (STRUCTURAL MIX)] | 158 | 126 | 79.4
CCOC[C@@]12CNCC[C@]1(c1ccc(Cl)c(Cl)c1)C2 (racemic) [6-(3,4-DICHLOROPHENYL)-1-[(ETHYLOXY)METHYL]-3-AZABICYCLO[4.1.0]-HEPTANE (ENANTIOMERIC MIX)] | 10 | 1.26 | 6.31
Clc1ccc([C@@]23CCNC[C@@H]2C3)cc1Cl (racemic) [RAC-1-(3,4-DICHLO ROPHENYL)-3-AZABICYCLO[4.1.0]HEPTANE (ENANTIOMERS)] | 251 | 25.1 | 50.1
OC[C@@]12CNCC[C@]1(c1ccc(Cl)c(Cl)c1)C2 (racemic) [RAC-1-(3,4-DICHLOROPHENYL)-3-AZABICYCLO[4.1.0]HEPTAN-6-YL)METHANOL (STRUCTURAL MIX)] | 158 | 20 | 200
CC(=O)[C@@]12CNCC[C@]1(c1ccc(Cl)c(Cl)c1)C2 (relative stereo) | 15.8 | 1 | 3.98
Clc1ccc([C@@]23CCNC[C@@H]2C3)cc1Cl (relative stereo) [RAC-1-(3,4-DICHLO ROPHENYL)-3-AZABICYCLO[4.1.0]HEPTANE (ENANTIOMERS)] | 251 | 39.8 | 50.1
COC[C@@]12CCNC[C@]1(c1ccc(Cl)c(Cl)c1)C2 (relative stereo) [RAC-1-(3,4-DICHLOROPHENYL)-6-(METHOXYMETHYL)-2-AZABICYCLO[4.1.0]HEPTANE (ENANTIOMERS)] | 100 | 12.6 | 63.1
Clc1ccc([C@]23CNCC[C@H]2C3)cc1Cl (relative stereo; 4) [1-PHENYL-3-AZABICYCLO[4.1.0]HEPTANE (STRUCTURAL MIX)] | 63.1 | 79.4 | 39.8
Clc1ccc([C@]23CNCC[C@H]2C3)cc1Cl (relative stereo; 5) [1-PHENYL-3-AZABICYCLO[4.1.0]HEPTANE (STRUCTURAL MIX)] | 398 | 251 | 100
OC[C@@]12CNCC[C@]1(c1ccc(Cl)c(Cl)c1)C2 (relative stereo; 14) [RAC-1-(3,4-DICHLOROPHENYL)-3-AZABICYCLO[4.1.0]HEPTAN-6-YL)METHANOL (STRUCTURAL MIX)] | 398 | 39.8 | 100
OC[C@@]12CNCC[C@]1(c1ccc(Cl)c(Cl)c1)C2 (relative stereo; 15) [RAC-1-(3,4-DICHLOROPHENYL)-3-AZABICYCLO[4.1.0]HEPTAN-6-YL)METHANOL (STRUCTURAL MIX)] | 100 | 7.94 | 79.4
CCOC[C@@]12CNCC[C@]1(c1ccc(Cl)c(Cl)c1)C2 (relative stereo; 30) [6-(3,4-DICHLOROPHENYL)-1-[(ETHYLOXY)METHYL]-3-AZABICYCLO[4.1.0]-HEPTANE (ENANTIOMERIC MIX)] | 100 | 10 | 63.1
CCOC[C@@]12CNCC[C@]1(c1ccc(Cl)c(Cl)c1)C2 (relative stereo; 31) [6-(3,4-DICHLOROPHENYL)-1-[(ETHYLOXY)METHYL]-3-AZABICYCLO[4.1.0]-HEPTANE (ENANTIOMERIC MIX)] | 7.94 | 1 | 3.98
Clc1ccc([C@]23CCNC[C@@]2(COCC2CC2)C3)cc1Cl (relative stereo; 34) [1-((CYCLOPROPYLMETHOXY)METHYL)-6-(3,4-DICHLOROPHENYL)-3-AZABICYCLO[4.1.0]HEPTANE (ENANTIOMERIC MIX)] | 20 | 0.398 | 3.16
Clc1ccc([C@]23CCNC[C@@]2(COCC2CC2)C3)cc1Cl (relative stereo; 35) [1-((CYCLOPROPYLMETHOXY)METHYL)-6-(3,4-DICHLOROPHENYL)-3-AZABICYCLO[4.1.0]HEPTANE (ENANTIOMERIC MIX)] | 126 | 3.98 | 63.1
Clc1ccc([C@@]23CCNC[C@@H]2C3)cc1Cl (single isomer, unassigned) [RAC-1-(3,4-DICHLO ROPHENYL)-3-AZABICYCLO[4.1.0]HEPTANE (ENANTIOMERS)] | 100 | 12.6 | 25.1
COC[C@@]12CCNC[C@]1(c1ccc(Cl)c(Cl)c1)C2 (single isomer, unassigned) [RAC-1-(3,4-DICHLOROPHENYL)-6-(METHOXYMETHYL)-2-AZABICYCLO[4.1.0]HEPTANE (ENANTIOMERS)] | 1000 | 158 | 631
COC[C@@]12CNCC[C@]1(c1ccc3ccccc3c1)C2 (single isomer, unassigned; 27) [1-(METHOXYMETHYL)-6-(NAPHTHALEN-2-YL)-3-AZABICYCLO[4.1.0]HEPTANE (ENANTIOMERIC MIX)] | 39.8 | 1 | 100
Clc1ccc([C@]23CCN4CC[C@]2(C4)C3)cc1Cl (single isomer, unassigned; 49) [3-(3,4-DICHLORO-PHENYL)-6-AZA-TRICYCLO[4.2.1.0*1,3*]NONANE (STRUCTURAL MIX)] | 63.1 | 1.58 | 79.4
Clc1ccc([C@]23CCN4CC[C@]2(C4)C3)cc1Cl (single isomer, unassigned; 50) [3-(3,4-DICHLORO-PHENYL)-6-AZA-TRICYCLO[4.2.1.0*1,3*]NONANE (STRUCTURAL MIX)] | 794 | 31.6 | 251
